According to patent US9938269B2, “Inhibitor compounds of phosphodiesterase type 10A” (ABBVIE INC., priority 2011, dated 2018):
Where a name gives a salt, the structure may show the parent alone.

Experiments:
[1] = biological target: T1, PDE10A (human) (Homo sapiens, UniProt Q9Y233); assay: Measurement of PDE activity (HTRF cAMP kit), human PDE10A; assay type: biochemical; conditions: PDE enzymatic reaction, substrate 20 nM for PDE10, 60 minutes at 29 C
T1 construct: purchased BPS Bioscience
How it was run: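 HTRF detection of cAMP left after hydrolysis, expressed as percent of uninhibited control to derive IC50. Reaction: serially diluted inhibitor mixed with recombinant enzyme, started with 20 nM cAMP, 60 min at 29 °C in Tris-HCl pH 7.5 buffer containing MgCl2 and BSA.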

[2] = Determination of the microsomal half-life, rat liver microsomes; conditions: rat, liver microsomes, pH 7.4
[3] = Determination of the microsomal half-life, human liver microsomes; conditions: human, liver microsomes, pH 7.4

T1 sequence (Q9Y233 whole entry): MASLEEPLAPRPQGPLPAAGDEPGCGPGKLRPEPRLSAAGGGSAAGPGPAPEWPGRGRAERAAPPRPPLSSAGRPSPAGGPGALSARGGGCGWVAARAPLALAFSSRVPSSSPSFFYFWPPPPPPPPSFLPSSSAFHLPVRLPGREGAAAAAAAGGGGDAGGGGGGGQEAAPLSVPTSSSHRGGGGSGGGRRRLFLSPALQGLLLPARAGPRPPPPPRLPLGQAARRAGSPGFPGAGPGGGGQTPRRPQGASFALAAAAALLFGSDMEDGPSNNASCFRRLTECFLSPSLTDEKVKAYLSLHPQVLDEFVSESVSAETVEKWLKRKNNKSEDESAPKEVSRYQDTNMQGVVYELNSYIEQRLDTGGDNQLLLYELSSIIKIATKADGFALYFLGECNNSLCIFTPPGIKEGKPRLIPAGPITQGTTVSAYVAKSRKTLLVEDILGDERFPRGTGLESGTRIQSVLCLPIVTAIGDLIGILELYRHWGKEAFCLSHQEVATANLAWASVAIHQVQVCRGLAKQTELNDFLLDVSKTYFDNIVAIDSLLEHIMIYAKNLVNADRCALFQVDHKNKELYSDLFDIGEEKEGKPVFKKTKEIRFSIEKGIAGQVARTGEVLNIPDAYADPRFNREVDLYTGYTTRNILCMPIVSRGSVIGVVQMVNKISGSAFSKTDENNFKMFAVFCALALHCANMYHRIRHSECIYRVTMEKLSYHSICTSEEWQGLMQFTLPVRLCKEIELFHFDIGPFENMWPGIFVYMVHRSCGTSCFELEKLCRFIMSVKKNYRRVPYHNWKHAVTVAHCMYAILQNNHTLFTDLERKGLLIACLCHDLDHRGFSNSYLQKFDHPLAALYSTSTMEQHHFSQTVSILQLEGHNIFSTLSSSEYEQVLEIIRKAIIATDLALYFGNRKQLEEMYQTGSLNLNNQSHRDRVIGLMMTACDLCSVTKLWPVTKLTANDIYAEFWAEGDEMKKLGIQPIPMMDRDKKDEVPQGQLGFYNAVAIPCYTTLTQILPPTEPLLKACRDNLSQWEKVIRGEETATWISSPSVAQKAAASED

SMILES | IC50 [1] [µM] | microsomal CLint at 0.5 μM [2] [µL/min/mg] | microsomal CLint at 0.5 μM [3] [µL/min/mg]
O=C1c2c(cccc2-c2ccc3[nH]c(=O)[nH]c3c2)CN1CCc1cn2ccccc2n1 [Example 245, 5-[2-(2-Imidazo[1,2-a]pyridin-2-yl-ethyl)-3-oxo-2,3-dihydro-1H-isoindol-4-yl]-1,3-dihydro-benzoimidazol-2-one] | < 0.1 | < 100 | < 100
O=C1c2cccc(OCc3cccnc3)c2C(=O)N1CCc1ccc2ccccc2n1 [Example 246, 4-(Pyridin-3-ylmethoxy)-2-(2-quinolin-2-yl-ethyl)-isoindole-1,3-dione] | < 0.1 | > 220 | 100 to 220
COc1ccc(N2CCOCC2)c2c1CN(CCc1ccc3ccccc3n1)C2=O [Example 248, 4-Methoxy-7-morpholin-4-yl-2-(2-quinolin-2-yl-ethyl)-2,3-dihydro-isoindol-1-one] | < 0.1 | < 100 | < 100
O=C1c2cccc(N3CCS(=O)(=O)CC3)c2C(=O)N1CCc1ccc2ccccc2n1 [Example 250, 4-(1,1-Dioxothiomorpholin-4-yl)-2-(2-quinolin-2-yl-ethyl)-isoindole-1,3-dione] | < 0.1 | > 220 | 100 to 220
O=C1c2c(cccc2-c2cccnc2)CN1CCc1nc2ncccc2[nH]1 [Example 253, 2-[2-(1H-Imidazo[4,5-b]pyridin-2-yl)-ethyl]-7-pyridin-3-yl-2,3-dihydro-isoindol-1-one] | 0.2 to 0.5 | < 100 | < 100
Cn1nccc1-c1ccnc2c1C(=O)N(CCc1cn3ccccc3n1)C2 [Example 255, 6-(2-Imidazo[1,2-a]pyridin-2-yl-ethyl)-4-(2-methyl-2H-pyrazol-3-yl)-6,7-dihydro-pyrrolo[3,4-b]pyridin-5-one] | 0.1 to 0.2 | < 100 | < 100
O=C1c2c(-c3cncnc3)ccnc2CN1CCc1cn2ccccc2n1 [Example 256, 6-(2-Imidazo[1,2-a]pyridin-2-yl-ethyl)-4-pyrimidin-5-yl-6,7-dihydro-pyrrolo[3,4-b]pyridin-5-one] | < 0.1 | < 100 | < 100
O=C1c2c(N3CCC4(COC4)C3)ccnc2CN1CCc1ccc2ccccc2n1 [Example 257, 4-(2-Oxa-6-aza-spiro[3.4]oct-6-yl)-6-(2-quinolin-2-yl-ethyl)-6,7-dihydro-pyrrolo[3,4-b]pyridin-5-one] | < 0.1 | 100 to 220 | 100 to 220
COc1ccc(N2CCN(C)CC2)c2c1CN(CCc1ccc3ccccc3n1)C2=O [Example 261, 4-Methoxy-7-(4-methyl-piperazin-1-yl)-2-(2-quinolin-2-yl-ethyl)-2,3-dihydro-isoindol-1-one di-trifluoroacetate] | < 0.1 | > 220 | < 100
Cn1c(CCN2Cc3cccc(N4CCOCC4)c3C2=O)nc2cc(F)ccc21 [Example 262, 2-[2-(5-Fluoro-1-methyl-1H-benzoimidazol-2-yl)-ethyl]-7-morpholin-4-yl-2,3-dihydro-isoindol-1-one] | < 0.1 | < 100 | 100 to 220
O=C1c2c(cccc2N2CCOCC2)CN1CCc1nc2ccccc2s1 [Example 263, 2-(2-Benzothiazol-2-yl-ethyl)-7-morpholin-4-yl-2,3-dihydro-isoindol-1-one trifluoroacetate] | < 0.1 | < 100 | 100 to 220
COc1ccc(N2CCOCC2)c2c1CN(CCc1cn3ccccc3n1)C2=O [Example 264, 2-(2-Imidazo[1,2-a]pyridin-2-yl-ethyl)-4-methoxy-7-morpholin-4-yl-2,3-dihydro-isoindol-1-one trifluoroacetate] | < 0.1 | < 100 | < 100
